Experimental data published in patent US12492195B2, “Preparation method for and crystal form of 3-aryloxy-3-five-membered heteroaryl-propylamine compound” (Zhangzhou Pien Tze Huang Pharmaceutical Co., Ltd., priority 2020, dated 2025).
In brackets after ≈: the same amount, converted by molar mass.

Assays:
human TRPA1 channel = target: T1, human TRPA1 channel (Homo sapiens, UniProt O75762); test: manual patch clamp detection of TRPA1 inhibitory activity; assay type: cell-based
T1 construct: expressed in transfected cells
Description: The stably transfected HEK293 cell line stably expressing human TRPA1 channel was placed in T75 culture flask with DMEM medium containing 15 μg/mL Blasticidin S HCl, 200 μg/mL Hygromycin B and 10% FBS, and cultured in an incubator in 5% CO2 at 37° C. When the cell density reached about 80%, the culture medium was removed, the residue was rinsed once with phosphate buffered saline (PBS) without calcium and magnesium. 2 mL of Trypsin was added to digest for 2 minutes, and 8 mL of culture medium was added to terminate the digestion. The cells were collected to 15 mL centrifuge tube and centrifuged at 800 rpm for 3 min. After the supernatant was removed, the cells were added to appropriate volume of extracellular fluid for re-suspending.
In manual patch clamp detection, HEKA system (Patch Master software) was used together with EPC-10 amplifier to record the whole cell current of TRPA1 stably transfected cell line at room temperature. […]
The record of data and the export of current amplitude measurement were carried out by Patch Master software. […] The original current data were corrected by software for leakage reduction, and the hTRPA1 current amplitude was measured at ±100 mV. The compound dose-effect curve and IC50 were fitted and calculated by GraphPad Prism 5.02 (GraphPad Sofhvare, San Diego, CA).

SD rats = test: SNL model in rats, mechanical hyperalgesia test; assay type: in vivo; settings: 10 mg/kg by gavage, 1 hour after administration
Description: Male SPF grade SD rats, weighed 150-180 g, were selected. Aseptic operation during surgery was performed. The animals were anesthetized with sodium pentobarbital (50 mg/kg, intraperitoneal injection). The surgical area of animal waist was shaved and the skin was disinfected three times with iodophor and 70% ethanol. After the skin was dried, the operation was started. Surgical knife was used to make a longitudinal incision at the back of the sacrum of the animal waist to expose the left paraspinal muscles, and distractor was used to separate muscle tissue to expose the spine. The left spinal nerves L5 and L6 were separated and ligated with a 6-0 silk thread, and the wound was sutured. […]
The animals were weighed to calculate the dosage. […] During the test, rapid paw withdrawal of animal was recorded as pain response. When the test fiber was removed from animal skin, the paw withdrawal of animal was also recorded as pain response. If animal moved or walked, the pain response was not recorded and the test was repeated. […]
Mechanical hyperalgesia was expressed as paw withdrawal threshold (PWT) in rat behavioral test, which was calculated with the following formula: 50% response threshold (g)=(10^(Xf+k))/10,000; • Xf=the final test fiber value used in the test; • k=table value; • =mean difference

[1] = Solubility of free compound Ic-1 in different solvents; assay type: physicochemical; settings: thermodynamic from solid, room temperature
Description: The free base of the compound of formula Ic-1 was used as the starting material to obtain other salt forms. The free base of the compound of formula Ic-1 was an oily substance, and the solubility of the free base of the compound of formula Ic-1 in 11 common solvents was tested at room temperature. In the experiment, about 2 mg of compound Ic-1 oily sample was weighed into a 3-ml vial, and then the corresponding solvent was gradually added (50, 50, 200, 700 μLL) and shaken until the solution was clear. If the sample was still not dissolved after adding the solvent to 1 ml, the solvent was not added any more. The rough solubility range calculated according to the mass of the solid sample, the volume of the added solvent and the observed dissolution phenomenon was shown in Table 8.

T1 sequence (O75762 whole entry): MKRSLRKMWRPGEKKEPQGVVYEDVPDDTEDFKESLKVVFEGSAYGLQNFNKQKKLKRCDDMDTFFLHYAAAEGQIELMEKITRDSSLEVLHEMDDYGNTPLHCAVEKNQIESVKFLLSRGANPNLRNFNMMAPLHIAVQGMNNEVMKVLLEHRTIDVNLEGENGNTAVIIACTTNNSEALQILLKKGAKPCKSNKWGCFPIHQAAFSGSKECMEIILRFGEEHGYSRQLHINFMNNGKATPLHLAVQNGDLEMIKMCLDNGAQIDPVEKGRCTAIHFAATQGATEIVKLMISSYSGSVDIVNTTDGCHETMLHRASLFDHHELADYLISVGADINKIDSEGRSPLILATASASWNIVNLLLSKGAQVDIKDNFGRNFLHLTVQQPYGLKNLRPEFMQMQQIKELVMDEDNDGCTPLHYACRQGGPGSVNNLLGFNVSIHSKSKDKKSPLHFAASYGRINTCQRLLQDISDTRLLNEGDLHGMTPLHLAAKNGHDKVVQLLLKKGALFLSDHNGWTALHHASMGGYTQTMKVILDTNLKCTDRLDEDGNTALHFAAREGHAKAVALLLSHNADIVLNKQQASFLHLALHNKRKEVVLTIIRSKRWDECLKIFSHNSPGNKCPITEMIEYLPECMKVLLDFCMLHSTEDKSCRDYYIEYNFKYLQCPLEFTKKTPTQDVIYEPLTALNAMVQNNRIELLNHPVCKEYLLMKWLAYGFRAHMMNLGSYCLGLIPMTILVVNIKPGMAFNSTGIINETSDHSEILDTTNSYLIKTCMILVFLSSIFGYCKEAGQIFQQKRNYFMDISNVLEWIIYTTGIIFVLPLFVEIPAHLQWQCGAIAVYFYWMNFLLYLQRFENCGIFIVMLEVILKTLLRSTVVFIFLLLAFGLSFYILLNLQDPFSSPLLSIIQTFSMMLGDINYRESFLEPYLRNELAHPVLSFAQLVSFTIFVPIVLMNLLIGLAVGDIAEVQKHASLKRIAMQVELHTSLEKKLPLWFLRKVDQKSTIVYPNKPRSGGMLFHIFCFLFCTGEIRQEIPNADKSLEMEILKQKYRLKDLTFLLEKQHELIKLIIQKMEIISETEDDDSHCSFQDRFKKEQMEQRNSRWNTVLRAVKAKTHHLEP

| ratio of IC50 of the S configuration of duloxetine to the IC50 of the compound (human TRPA1 channel) | solubility ([1]; aqueous with cosolvent or surfactant or cyclodextrin, Methanol:Water (1:1)) | solubility ([1]; organic solvent or mixture, Acetone) | solubility ([1]; organic solvent or mixture, Acetonitrile) | solubility ([1]; organic solvent or mixture, Dimethyl sulfoxide) | solubility ([1]; organic solvent or mixture, Ethanol) | solubility ([1]; organic solvent or mixture, Ethyl acetate) | solubility ([1]; organic solvent or mixture, Methanol) | solubility ([1]; organic solvent or mixture, Methyl isobutyl ketone) | solubility ([1]; organic solvent or mixture, Tetrahydrofuran) | solubility ([1]; organic solvent or mixture, n-Heptane) | solubility ([1]; Water) | Structure (SMILES) | PWT (SD rats) |
| --- | --- | --- | --- | --- | --- | --- | --- | --- | --- | --- | --- | --- | --- |
| 10.14 | > 38 mg/mL | > 46 mg/mL | > 54 mg/mL | > 38 mg/mL | > 42 mg/mL | > 36 mg/mL | > 38 mg/mL | > 42 mg/mL | > 40 mg/mL | 7.6 to 23 mg/mL (≈ 26.4 to 80 mM) | < 2 mg/mL | CNCC[C@H](Oc1cccc2ccoc12)c1cccs1 [IC-1, (S)-3-(Benzofuran-7-yloxy)-N-methyl-3-(thiophen-2-yl)propan-1-amine] | 7.869 ± 2.846 g |
| 3.9 |  |  |  |  |  |  |  |  |  |  |  | CNCC[C@H](Oc1cccc2c1CCC2)c1cccs1 [IC-10] |  |
